Source: patent US12220461B2, “Polypeptide-coupled small molecule compound and antiviral application thereof” (Guangzhou Medical University, priority 2023, dated 2025)
Starred links: 1 amine or outer side, 2 acyl side, 3 side chain; linkers in the order of their positions; H or OH if unused. Non-standard residues stand in square brackets, D forms with d. Residues, ends and D or L forms follow the SMILES beside them. ξ: configuration not given here. *: point of attachment. X1 = Cc1ccc(N[*:1])cc1C(=O)[*:2]; X2 = C[C@@H](N*)c1cccc2ccccc12; ξR = N=C(N)NCCCC(N)C(=O)O; ξL = CC(C)CC(N)C(=O)O; ξS = NC(CO)C(=O)O

Tested on: Omicron BA5.2 variant of SARS-CoV-2
Assay type: cell-based

Cc1ccc(NC(=O)CNC(=O)CNC(=O)C(CCCNC(=N)N)NC(=O)C(CC(C)C)NC(=O)C(CCCNC(=N)N)NC(=O)C(N)CO)cc1C(=O)N[C@H](C)c1cccc2ccccc12 (stereo partly shown) [RG-17] (H-[ξS][ξR][ξL][ξR]GG[X1]-X2)
IC50 for inhibition of replication of the SARS-CoV-2 genome (qPCR): lower than GRL0617
